Source: PubChem BioAssay (NCI)
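These data come from cells grown in 96-well plates and exposed to compound for 48 hours at five concentrations. TGI: total growth inhibition.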

Columns and labels:
Test in all cases: growth of human tumour cells (NCI), 48 h
[1] = test system: A549 NSCLC
[2] = test system: CCRF-CEM leukemia
[3] = test system: COLO 205 colon
[4] = test system: DLD-1 colon
[5] = test system: HCT-116 colon
[6] = test system: HL-60(TB) leukemia
[7] = test system: HOP-18 NSCLC
[8] = test system: HOP-62 NSCLC
[9] = test system: HOP-92 NSCLC
[10] = test system: HT29 colon
[11] = test system: IGROV1 ovarian
[12] = test system: K-562 leukemia
[13] = test system: KM12 colon
[14] = test system: LXFL 529 NSCLC
[15] = test system: M19-MEL melanoma
[16] = test system: MALME-3M melanoma
[17] = test system: MOLT-4 leukemia
[18] = test system: NCI-H226 lung
[19] = test system: NCI-H23 lung
[20] = test system: NCI-H460 lung
[21] = test system: NCI-H522 lung
[22] = test system: OVCAR-3 ovarian
[23] = test system: OVCAR-5 ovarian
[24] = test system: RPMI-8226 leukemia
[25] = test system: SF-268 CNS
[26] = test system: SF-295 CNS
[27] = test system: SF-539 CNS
[28] = test system: SK-MEL-2 melanoma
[29] = test system: SK-MEL-28 melanoma
[30] = test system: SK-MEL-5 melanoma
[31] = test system: SK-OV-3 ovarian
[32] = test system: SNB-19 CNS
[33] = test system: SNB-75 CNS
[34] = test system: SW-620 colon
[35] = test system: TK-10 renal
[36] = test system: U251 CNS
[37] = test system: UACC-257 melanoma
[38] = test system: UACC-62 melanoma
[39] = test system: UO-31 renal
[40] = test system: 786-0 renal
[41] = test system: A498 renal
[42] = test system: ACHN renal
[43] = test system: BT-549 breast
[44] = test system: CAKI-1 renal
[45] = test system: DU-145 prostate
[46] = test system: EKVX NSCLC
[47] = test system: HCC-2998 colon
[48] = test system: HCT-15 colon
[49] = test system: HS 578T breast
[50] = test system: LOX IMVI melanoma
[51] = test system: M14 melanoma
[52] = test system: MCF7 breast
[53] = test system: MDA-MB-231 breast
[54] = test system: MDA-MB-435
[55] = test system: MDA-N
[56] = test system: NCI/ADR-RES ovarian
[57] = test system: OVCAR-4 ovarian
[58] = test system: OVCAR-8 ovarian
[59] = test system: PC-3 prostate
[60] = test system: RXF 393 renal
[61] = test system: SN12C renal
[62] = test system: SR leukemia
[63] = test system: T-47D breast

Measured: TGI

COc1cc(C2C(Cl)C(=O)N2NC(=O)c2ccc(NC(C)=O)cc2)cc(OC)c1OC (configuration not stated)
not listed: [40] | [41] | [42] | [43] | [44] | [45] | [46] | [47] | [48] | [49] | [50] | [51] | [52] | [53] | [54] | [55] | [56] | [57] | [58] | [59] | [60] | [61] | [62] | [63]
> 100 µM: all other assays above

C[N+](C)(C)CC1CCCCCCCCCCC1=O (configuration not stated)
not listed: [4] | [7] | [14] | [15]
> 100 µM: all other assays above

NS(=O)(=O)c1ccc(NC2(C(=O)O)CCCC2)cc1
not listed: [4] | [7] | [14] | [15]
> 100 µM: all other assays above
